The record followed here is patent US20100227859A1, “TRICYCLIC COMPOUNDS AS MATRIX METALLOPROTEINASE INHIBITORS” (priority 2007, published 2010).

SMILES strings stand for the structures.

The target in this assay is purified human MMP-12 enzyme (Homo sapiens, UniProt P39900). Description: MMP-12 FRET assay. The format is biochemical. The conditions noted are these: substrate 20 μM, room temperature. The procedure, abridged: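 Initial fluorescence rate (325/395 nm) of cleavage of MCA-Pro-Leu-Gly-Leu-Dpa(DNP)-Ala-Arg, 20 μM final, was followed for 30 min at room temperature after a 30 min enzyme–compound preincubation. Buffer: 50 mM HEPES pH 7.4, 100 mM NaCl, 5 mM CaCl2, 0.005% Brij-35, with 10% final DMSO. IC50 came from a Hill-type fit of rate versus inhibitor concentration.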
purified human MMP-12 enzyme, sequence (P39900 106-470): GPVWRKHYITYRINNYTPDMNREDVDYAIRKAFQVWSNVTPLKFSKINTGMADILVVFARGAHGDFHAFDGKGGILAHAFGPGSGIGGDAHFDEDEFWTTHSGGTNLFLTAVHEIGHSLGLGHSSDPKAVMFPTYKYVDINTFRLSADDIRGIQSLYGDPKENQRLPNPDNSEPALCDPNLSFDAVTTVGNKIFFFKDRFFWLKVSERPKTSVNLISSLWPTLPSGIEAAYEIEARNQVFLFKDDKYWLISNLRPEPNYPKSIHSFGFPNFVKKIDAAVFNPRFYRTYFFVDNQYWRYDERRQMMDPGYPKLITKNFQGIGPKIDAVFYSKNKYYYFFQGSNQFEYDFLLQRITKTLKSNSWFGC
In the case of `CCc1sc(-c2ccc3c(c2)oc2cc(S(=O)(=O)N[C@H](C(=O)O)C(C)C)ccc23)cc1Br` [Compound 165, (S)-2-(7-(4-bromo-5-ethylthiophen-2-yl)dibenzo[b,d]furan-3-sulfonamido)-3-methylbutanoic acid], the half-inhibitory concentration (IC50) was 1.5 nM. With `Cc1nc(C)c(-c2ccc3oc4cc(S(=O)(=O)N[C@H](C(=O)O)C(C)C)ccc4c3c2)s1` [Compound 201, (S)-2-(8-(2,4-dimethylthiazol-5-yl)dibenzo[b,d]furan-3-sulfonamido)-3-methylbutanoic acid] the figure was below 1.5 nM. Take `CCCc1ccc(-c2ccc3c(c2)oc2ccc(S(=O)(=O)N[C@@H](C(=O)O)C(C)C)cc23)s1` [Compound 243, (R)-3-methyl-2-(7-(5-propylthiophen-2-yl)dibenzo[b,d]furan-2-sulfonamido)butanoic acid]: the IC50 came to 1.5 nM. In other words, the single-digit nanomolar range. `COc1ncc(-c2ccc3oc4cc(S(=O)(=O)N[C@H](C(=O)O)C(C)C)ccc4c3c2)cn1` [Compound 153, (S)-2-(8-(2-methoxypyrimidin-5-yl)dibenzo[b,d]furan-3-sulfonamido)-3-methylbutanoic acid] yielded an IC50 below 1.5 nM.

On to `CC(C)[C@H](NS(=O)(=O)c1ccc2c(c1)oc1ccc(-c3ccsc3Cl)cc12)C(=O)O` [Compound 34, (S)-2-(8-(2-chlorothiophen-3-yl)dibenzo[b,d]furan-3-sulfonamido)-3-methylbutanoic acid], for which the IC50 is below 1.5 nM. `Cc1nnc(-c2ccc3c(c2)oc2ccc(S(=O)(=O)N[C@@H](C(=O)O)C(C)C)cc23)s1` [Compound 292, (R)-3-methyl-2-(7-(5-methyl-1,3,4-thiadiazol-2-yl)dibenzo[b,d]furan-2-sulfonamido)butanoic acid] returned an IC50 of 43 nM. The same measure for `CCc1ccc(-c2ccc3c(c2)oc2ccc(S(=O)(=O)N[C@H](C(=O)O)C(C)C)cc23)s1` [Compound 242, (S)-2-(7-(5-ethylthiophen-2-yl)dibenzo[b,d]furan-2-sulfonamido)-3-methylbutanoic acid]: 8.4 nM; for `CC(C)[C@H](NS(=O)(=O)c1ccc2c(c1)oc1ccc(-c3oc(Cl)cc3Cl)cc12)C(=O)O` [Compound 134, (S)-2-(8-(3,5-dichlorofuran-2-yl)dibenzo[b,d]furan-3-sulfonamido)-3-methylbutanoic acid]: 2.5 nM; for `CC(C)[C@H](NS(=O)(=O)c1ccc2c(c1)oc1ccc(-c3ccc4ncccc4c3)cc12)C(=O)O` [Compound 14, (S)-3-methyl-2-(8-(quinolin-6-yl)dibenzo[b,d]furan-3-sulfonamido)butanoic acid]: below 1.5 nM. With `C/C=C/c1ccc2oc3cc(S(=O)(=O)N[C@H](C(=O)O)C(C)C)ccc3c2c1` [Compound 66, (S,E)-3-methyl-2-(8-(prop-1-enyl)dibenzo[b,d]furan-3-sulfonamido)butanoic acid] the figure was below 1.5 nM; with `CC(C)[C@H](NS(=O)(=O)c1ccc2c(c1)oc1cc(C(=N)NO)ccc12)C(=O)O` [Compound 186, (S)-2-(7-(N-hydroxycarbamimidoyl)dibenzo[b,d]furan-3-sulfonamido)-3-methylbutanoic acid], 1.9 nM. With `CC(C)[C@H](NS(=O)(=O)c1ccc2c(c1)oc1ccc(-c3nc(Br)cs3)cc12)C(=O)O` [Compound 217, (S)-2-(8-(4-bromothiazol-2-yl)dibenzo[b,d]furan-3-sulfonamido)-3-methylbutanoic acid] the figure was below 1.5 nM.

For the compound `Cc1cscc1-c1ccc2oc3cc(S(=O)(=O)N[C@H](C(=O)O)C(C)C)ccc3c2c1` [Compound 5, (S)-3-methyl-2-(8-(4-methylthiophen-3-yl)dibenzo[b,d]furan-3-sulfonamido)butanoic acid], the concentration for half-maximal inhibition (IC50) was 2.2 nM. Compound `CC(C)[C@H](NS(=O)(=O)c1ccc2c(c1)oc1ccc(-c3ccc4c(c3)C(C)(C)OC(=O)N4)cc12)C(=O)O` [Compound 4, (S)-2-(8-(4,4-dimethyl-2-oxo-2,4-dihydro-1H-benzo[d][1,3]oxazin-6-yl)dibenzo[b,d]furan-3-sulfonamido)-3-methylbutanoic acid] came in with a half-maximal inhibitory concentration (IC50) of 12.2 nM. Consider `CC(C)CCn1cc(-c2ccc3oc4cc(S(=O)(=O)N[C@H](C(=O)O)C(C)C)ccc4c3c2)cn1` [Compound 20, (S)-2-(8-(1-isopentyl-1H-pyrazol-4-yl)dibenzo[b,d]furan-3-sulfonamido)-3-methylbutanoic acid], for which the 50% inhibitory concentration (IC50) was determined as 4 nM. For `CC(C)[C@@H](NS(=O)(=O)c1ccc2oc3cc(-c4cnn(Cc5ccccc5)c4)ccc3c2c1)C(=O)O` [Compound 175, (R)-2-(7-(1-benzyl-1H-pyrazol-4-yl)dibenzo[b,d]furan-2-sulfonamido)-3-methylbutanoic acid], the IC50 came to 12 nM. As for `CC(C)[C@@H](NS(=O)(=O)c1ccc2oc3cc(-c4ccc(Br)s4)ccc3c2c1)C(=O)O` [Compound 144, (R)-2-(7-(5-bromothiophen-2-yl)dibenzo[b,d]furan-2-sulfonamido)-3-methylbutanoic acid], the IC50 amounted to 2.2 nM. This IC50 is about 5.5-fold lower than that of the compound before. Compound `COc1ccc2nc(-c3ccc4oc5cc(S(=O)(=O)N[C@H](C(=O)O)C(C)C)ccc5c4c3)sc2c1` [Compound 208, (S)-2-(8-(6-methoxybenzo[d]thiazol-2-yl)dibenzo[b,d]furan-3-sulfonamido)-3-methylbutanoic acid] registered a 50% inhibitory concentration (IC50) of 2.7 nM.

Compound `CC(C)[C@H](NS(=O)(=O)c1ccc2c(c1)oc1cc(-c3sc(Cl)cc3Cl)ccc12)C(=O)O` [Compound 85, (S)-2-(7-(3,5-dichlorothiophen-2-yl)dibenzo[b,d]furan-3-sulfonamido)-3-methylbutanoic acid] had an IC50 below 1.5 nM.

Compound `CC(C)[C@H](NS(=O)(=O)c1ccc2c(c1)sc1ccc(-c3ccc(-c4ccc(Cl)nc4)nc3)cc12)C(=O)O` [Compound 61, (S)-2-(8-(6′-chloro-2,3′-bipyridin-5-yl)dibenzo[b,d]thiophene-3-sulfonamido)-3-methylbutanoic acid] registered a concentration for half-maximal inhibition (IC50) of 276 nM. This lies in the sub-micromolar range. The same measure for `CC(C)[C@@H](NS(=O)(=O)c1ccc2oc3cc(-c4nc5ccccc5s4)ccc3c2c1)C(=O)O` [Compound 293, (R)-2-(7-(benzo[d]thiazol-2-yl)dibenzo[b,d]furan-2-sulfonamido)-3-methylbutanoic acid]: 21 nM; for `C#Cc1ccc2oc3cc(S(=O)(=O)N[C@H](C(=O)O)C(C)C)ccc3c2c1` [Compound 303, (S)-2-(8-ethynyldibenzo[b,d]furan-3-sulfonamido)-3-methylbutanoic acid]: below 1.5 nM. In the case of `Cc1nc(-c2ccc3oc4cc(S(=O)(=O)N[C@H](C(=O)O)C(C)C)ccc4c3c2)sc1C` [Compound 305, (S)-2-(8-(4,5-dimethylthiazol-2-yl)dibenzo[b,d]furan-3-sulfonamido)-3-methylbutanoic acid], half-maximal inhibition (IC50) was put at 1.6 nM. The same measure for `CC(C)Cc1ncc(-c2ccc3c(c2)oc2cc(S(=O)(=O)N[C@H](C(=O)O)C(C)C)ccc23)s1` [Compound 249, (S)-2-(7-(2-isobutylthiazol-5-yl)dibenzo[b,d]furan-3-sulfonamido)-3-methylbutanoic acid]: 7.8 nM; for `CC(C)[C@H](NS(=O)(=O)c1ccc2c(c1)oc1cc(-c3nc4ccccc4s3)ccc12)C(=O)O` [Compound 226, (S)-2-(7-(benzo[d]thiazol-2-yl)dibenzo[b,d]furan-3-sulfonamido)-3-methylbutanoic acid]: 1.7 nM. With `CC(C)[C@H](NS(=O)(=O)c1ccc2c(c1)oc1ccc(-c3ccc(Cl)nc3)cc12)C(=O)O` [Compound 64, (S)-2-(8-(6-chloropyridin-3-yl)dibenzo[b,d]furan-3-sulfonamido)-3-methylbutanoic acid] the figure was below 1.5 nM; with `CC(C)[C@H](NS(=O)(=O)c1ccc2c(c1)oc1ccc(-c3ncon3)cc12)C(=O)O` [Compound 93, (S)-2-(8-(1,2,4-oxadiazol-3-yl)dibenzo[b,d]furan-3-sulfonamido)-3-methylbutanoic acid], 68 nM. `CC(C)Cc1ncc(-c2ccc3oc4cc(S(=O)(=O)N[C@H](C(=O)O)C(C)C)ccc4c3c2)s1` [Compound 248, (S)-2-(8-(2-isobutylthiazol-5-yl)dibenzo[b,d]furan-3-sulfonamido)-3-methylbutanoic acid] returned an IC50 below 1.5 nM. For `COc1ccc(-c2ccc3sc4cc(S(=O)(=O)N[C@H](C(=O)O)C(C)C)ccc4c3c2)cn1` [Compound 55, (S)-2-(8-(6-methoxypyridin-3-yl)dibenzo[b,d]thiophene-3-sulfonamido)-3-methylbutanoic acid], the 50% inhibitory concentration (IC50) stood at 65 nM. On to `CC(C)[C@H](NS(=O)(=O)c1ccc2c(c1)oc1ccc(C(=N)N(C)C(C)C)cc12)C(=O)O` [Compound 110, (S)-2-(8-(N-isopropyl-N-methylcarbamimidoyl)dibenzo[b,d]furan-3-sulfonamido)-3-methylbutanoic acid], for which the IC50 is 425 nM. Compared with the last compound, the IC50 is about 6.5-fold higher. In turn, `CC(C)[C@H](NS(=O)(=O)c1ccc2c(c1)oc1ccc(-c3ccc4oc5ccccc5c4c3)cc12)C(=O)O` [Compound 195, (S)-2-(2,2′-bidibenzo[b,d]furan-7-sulfonamido)-3-methylbutanoic acid] registered a half-inhibitory concentration (IC50) of 7.3 nM. Against the preceding compound, the IC50 is about 58-fold lower.

In turn, `CCc1ccc(-c2cc(-c3ccc4c(c3)oc3cc(S(=O)(=O)N[C@H](C(=O)O)C(C)C)ccc34)sc2CC)s1` [Compound 166, (S)-2-(7-(2′,5-diethyl-2,3′-bithiophen-5′-yl)dibenzo[b,d]furan-3-sulfonamido)-3-methylbutanoic acid] showed a concentration for half-maximal inhibition (IC50) of 93 nM. Compared with the last compound, the IC50 is about 13-fold higher. `COc1ncc(-c2ccc3c(c2)oc2ccc(S(=O)(=O)N[C@@H](C(=O)O)C(C)C)cc23)c(OC)n1` [Compound 115, (R)-2-(7-(2,4-dimethoxypyrimidin-5-yl)dibenzo[b,d]furan-2-sulfonamido)-3-methylbutanoic acid] returned an IC50 of 290 nM. The same measure for `CC(C)[C@H](NS(=O)(=O)c1ccc2c(c1)oc1ccc(-c3cncnc3)cc12)C(=O)O` [Compound 152, (S)-3-methyl-2-(8-(pyrimidin-5-yl)dibenzo[b,d]furan-3-sulfonamido)butanoic acid]: below 1.5 nM.
